Legend:
Cmk = target: T1, Cmk (Escherichia coli, UniProt P0A6I0); test: chymotrypsin-coupled PPIase assay, absorbance […] nm; assay type: biochemical; conditions: inhibitor; substrate N-Suc-Ala-Ala-cis-Pro-Phe-p-nitroanilide; two-fold molar excess of FK506, 5 min preincubation; 35 mM HEPES pH 8.0, 10 °C
T1 construct: ASKA clone in pCA24N, Ni-NTA purified from E. coli lacking six PPIs (SR18292)
T1 sequence (P0A6I0 1-227): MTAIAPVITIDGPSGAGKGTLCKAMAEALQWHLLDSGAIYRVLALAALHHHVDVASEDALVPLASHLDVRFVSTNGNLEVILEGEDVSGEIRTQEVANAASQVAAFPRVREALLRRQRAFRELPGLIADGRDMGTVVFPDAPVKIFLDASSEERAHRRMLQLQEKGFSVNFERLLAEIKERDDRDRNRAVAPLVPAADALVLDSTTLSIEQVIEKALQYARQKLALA

MetL = target: T2, MetL (Escherichia coli, UniProt P00562); test: chymotrypsin-coupled PPIase assay, absorbance […] nm; assay type: biochemical; conditions: inhibitor; substrate N-Suc-Ala-Ala-cis-Pro-Phe-p-nitroanilide; two-fold molar excess of FK506, 5 min preincubation; 35 mM HEPES pH 8.0, 10 °C
T2 construct: ASKA clone in pCA24N, Ni-NTA purified from E. coli lacking six PPIs (SR18292)
T2 sequence (P00562 whole entry): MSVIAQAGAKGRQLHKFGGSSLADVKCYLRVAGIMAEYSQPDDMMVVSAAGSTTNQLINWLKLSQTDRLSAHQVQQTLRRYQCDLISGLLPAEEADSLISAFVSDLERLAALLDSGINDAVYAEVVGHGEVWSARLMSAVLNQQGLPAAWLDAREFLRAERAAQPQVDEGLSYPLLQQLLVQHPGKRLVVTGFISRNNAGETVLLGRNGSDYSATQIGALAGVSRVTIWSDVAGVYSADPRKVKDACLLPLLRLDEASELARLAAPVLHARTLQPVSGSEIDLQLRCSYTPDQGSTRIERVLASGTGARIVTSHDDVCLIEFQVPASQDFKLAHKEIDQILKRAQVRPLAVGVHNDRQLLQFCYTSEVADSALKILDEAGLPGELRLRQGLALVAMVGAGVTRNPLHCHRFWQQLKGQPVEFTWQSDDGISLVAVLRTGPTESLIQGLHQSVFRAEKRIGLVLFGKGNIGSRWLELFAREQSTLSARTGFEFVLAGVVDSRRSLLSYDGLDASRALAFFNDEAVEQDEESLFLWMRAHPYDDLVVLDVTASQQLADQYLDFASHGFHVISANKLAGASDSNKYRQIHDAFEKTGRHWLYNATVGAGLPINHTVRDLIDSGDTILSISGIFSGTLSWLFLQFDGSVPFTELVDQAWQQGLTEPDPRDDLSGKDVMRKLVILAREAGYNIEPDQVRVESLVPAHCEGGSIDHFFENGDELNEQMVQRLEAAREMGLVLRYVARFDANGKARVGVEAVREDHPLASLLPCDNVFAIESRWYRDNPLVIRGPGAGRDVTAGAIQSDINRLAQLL

C=CC[C@@H]1/C=C(\C)C[C@H](C)C[C@H](OC)[C@H]2O[C@@](O)(C(=O)C(=O)N3CCCC[C@H]3C(=O)O[C@H](/C(C)=C/[C@@H]3CC[C@@H](O)[C@H](OC)C3)[C@H](C)[C@@H](O)CC1=O)[C@H](C)C[C@@H]2OC [FK506] was tested, and the “chymotrypsin-coupled PPIase assay, absorbance 390 nm” value (Cmk) was “inhibition of the PPIase activity of Cmk by the two-fold molar excess of FK506” and the “chymotrypsin-coupled PPIase assay, absorbance 390 nm” value (MetL) was “inhibition of the PPIase activity of MetL by the two-fold molar excess of FK506”.

Reference: article PMC7461557, “Multicopy Suppressor Analysis of Strains Lacking Cytoplasmic Peptidyl-Prolyl cis/trans Isomerases Identifies Three New PPIase Activities in Escherichia coli That Includes the DksA Transcription Factor” (International Journal of Molecular Sciences, 2020)
